Test results reported in ChEMBL document CHEMBL1137131, “Synthesis and cytotoxicity of water soluble quaternary salt derivatives of camptothecin” (Bioorg Med Chem Lett, 2004).
In brackets after ≈: the same amount, converted by molar mass.

Tests used:
Type in all cases: functional, cell-based
KB = test: In vitro cytotoxicity against KB cell line (human epidermoid carcinoma of the nasopharynx) using MTT assay
HCT-8 = test: In vitro cytotoxicity against HCT-8 cell line (human colon cancer) using MTT assay
Bel-7402 = test: In vitro cytotoxicity against Bel7402 cell line (human liver cancer) using MTT assay

SMILES | IC50 (KB) [µg/mL] | IC50 (HCT-8) [µg/mL] | IC50 (Bel-7402) [µg/mL]
CC[C@@]1(O)C(=O)OCc2c1cc1n(c2=O)Cc2cc3cc(OCCC[n+]4cccc(C)c4)ccc3nc2-1 | < 0.005 | < 0.005 | 0.04
CC[C@@]1(O)C(=O)OCc2c1cc1n(c2=O)Cc2cc3cc(OCCC[n+]4cccc(CO)c4)ccc3nc2-1 | 0.31 | 0.34 | 2.87
CC[C@@]1(O)C(=O)OCc2c1cc1n(c2=O)Cc2cc3cc(OCCC[n+]4cccc(F)c4)ccc3nc2-1 | 3.4 | 2.02 | 5
CC[C@@]1(O)C(=O)OCc2c1cc1n(c2=O)Cc2cc3cc(OCC[n+]4cccc(C=O)c4)ccc3nc2-1 | 0.34 | 0.35 | 3.73
CC[C@@]1(O)C(=O)OCc2c1cc1n(c2=O)Cc2cc3c(CN(C)C)c(O)ccc3nc2-1.Cl [TOPOTECAN HYDROCHLORIDE] | 0.02 | 0.03 | 0.4
CC[C@@]1(O)C(=O)OCc2c1cc1n(c2=O)Cc2cc3cc(OCCC[n+]4cccc(O)c4)ccc3nc2-1 | 0.04 | 0.03 | 3.92
CC[C@@]1(O)C(=O)OCc2c1cc1n(c2=O)Cc2cc3ccccc3nc2-1 [CAMPTOTHECIN] | < 0.005 | < 0.005 | 2.72 (≈ 7.81 µM)
CC[C@@]1(O)C(=O)OCc2c1cc1n(c2=O)Cc2cc3cc(OCCC[n+]4cccc(C(C)=O)c4)ccc3nc2-1 | 3.13 | 3.15 | 5
CC[C@@]1(O)C(=O)OCc2c1cc1n(c2=O)Cc2cc3cc(OCC[n+]4cccc(F)c4)ccc3nc2-1 | 0.33 | 0.38 | 5
CC[C@@]1(O)C(=O)OCc2c1cc1n(c2=O)Cc2cc3cc(OCCC[n+]4cccc(C=O)c4)ccc3nc2-1 | 0.27 | 0.17 | 0.46
CC[C@@]1(O)C(=O)OCc2c1cc1n(c2=O)Cc2cc3cc(OCC[n+]4cccc(C(=O)O)c4)ccc3nc2-1 | 0.31 | 0.27 | 5
CC[C@@]1(O)C(=O)OCc2c1cc1n(c2=O)Cc2cc3cc(OCC[n+]4cccc(C(C)=O)c4)ccc3nc2-1 | 3.21 | 3.01 | 5
CC[C@@]1(O)C(=O)OCc2c1cc1n(c2=O)Cc2cc3cc(OCC[n+]4cccc(O)c4)ccc3nc2-1 | 0.32 | 0.42 | 0.47
CC[C@@]1(O)C(=O)OCc2c1cc1n(c2=O)Cc2cc3cc(OCCC[n+]4cccc(C(=O)O)c4)ccc3nc2-1 | 0.32 | 0.33 | 0.44
CC[C@@]1(O)C(=O)OCc2c1cc1n(c2=O)Cc2cc3cc(OCC[n+]4cccc(C)c4)ccc3nc2-1 | 0.63 | 1.42 | 0.47
CC[C@@]1(O)C(=O)OCc2c1cc1n(c2=O)Cc2cc3cc(OCC[n+]4ccccc4)ccc3nc2-1 | 0.33 | 0.45 | 3.53
CC[C@@]1(O)C(=O)OCc2c1cc1n(c2=O)Cc2cc3cc(OCCC[n+]4ccccc4)ccc3nc2-1 | 0.03 | 0.03 | 0.44
CC[C@@]1(O)C(=O)OCc2c1cc1n(c2=O)Cc2cc3cc(OCC[n+]4cccc(CO)c4)ccc3nc2-1 | 3.28 | 3.73 | 5
